Test results reported in US8956842B2, “Paenibacillus sp. HPL-3 strain producing xylanase having heat-resistance, a wide range of optimum pH and high activity, a novel xylanase separated from the strain, and a method for mass-production of the same using the transformant originated from the strain” (Korea Research Institute of Chemical Technology, priority 2011, dated 2015).
Where two headings read alike, the source gives them in different places.

What was measured:
[1] = system: novel xylanase; experiment: Effect of metal ions and additives on xylanase activity (DNS method); format: biochemical, Paenibacillus sp. HPL-3
Method: (§1) The measurement of xylanase activity (xylan decomposing activity) of the isolated strain, active clone, transformant, and isolated/purified enzyme was performed by either or both of the following two methods. The first method was enzyme activity measuring method using solid culture. Particularly, soft agar double medium was prepared by adding birch xylan (Fluka Bio Chemika. Co.) to LB medium by 0.5˜1.0%, to which the strain was inoculated, followed by culture for overnight. On the next day, the strain and active clone forming translucent zone (halo) around the cultured colony were selected by Congo-red staining. The second method was enzyme activity measuring method using liquid culture, that is DNS (3,5-dinitrosalicylic acid) quantitative method (Miller G. L. Anal Chem 31, 426-428, 1959). Particularly, 50 μl of substrate solution (50 mM Tris-HCl containing birch xylan by 2%, pH 7.0) was added to 50 μl of enzyme solution, followed by reaction at 50° C. for 20 minutes. 200 μl of DNS solution was added thereto, followed by further reaction at 90° C. for 5 minutes. Then, OD540 was measured. 1 unit of the enzyme was defined as the enzyme activity of 1 mg xylanase to produce 1 μmol of reducing sugar (xylose) per 1 minute.
To investigate the effect of metal ions on xylanase activity, CaCl2, MgCl2, MgCl2, CuCl2, ZnCl2, and FeCl3 were added by 1 mM each. It was further investigated how other salts such as NaCl, LiCl, KCl, NH4Cl, EDTA, CsCl2, 2-ME (2-Mercaptoethanol), DTT (Dithiothreitol), PMSF (Penylmethylsulfonyl fluoride), acetate, and furfural could affect xylanase activity.

[2] = Xylanase activity (xylan decomposing activity) by DNS quantitative method at different pH and temperature; format: biochemical
Method: as §1, with “minute. One clone showing the best activity, GM3-SLX1, was selected by liquid culture and solid culture activity test (FIG. 2).” for “minute.”
In this example, pH, temperature, and metal ion-dependent activity of xylanase over-expressed and isolated from the E. coli transformant over-expressing the novel xylanase constructed in Example <3-4> was investigated by the same manner as described in example 3-2. pH of the reaction solution was regulated to pH 4˜5 with citric acid buffer, to pH 6˜8 with phosphate buffer, to pH 7˜9 with Tris/HCl buffer, and to pH 9˜11 with glycine/NaOH buffer. To investigate the effect of metal ions on xylanase activity, CaCl2, MgCl2, MgCl2, CuCl2, ZnCl2, and FeCl3 were added by 1 mM each. It was further investigated how other salts such as NaCl, LiCl, KCl, NH4Cl, EDTA, CsCl2, 2-ME (2-Mercaptoethanol), DTT (Dithiothreitol), PMSF (Penylmethylsulfonyl fluoride), acetate, and furfural could affect xylanase activity.
E. coli BL21-Gold (DE) (Stratagene, USA) was transfected with pIVEX GST-xylanase recombinant vector (Bioprogen Co., Ltd., Korea) containing the gene (SEQ. ID. NO: 3) encoding the novel xylanase represented by SEQ. ID. NO: 4, which was inoculated in liquid medium (LB 25 g/L) supplemented with ampicillin (50 μg/ml), followed by shaking culture at 37° C. at 150 rpm until […] reached 0.4˜0.6. To induce the expression of the target protein in E. coli cells, IPTG (isopropyl-D-thiogalactoside) was added to the suspension at the concentration of 1 mM, followed by further culture for 3 hours. The culture solution was centrifuged at 10,000 rpm for 10 minutes and the recovered precipitate was washed with PBS twice. The washed precipitate was re-suspended in PBS and then cell were lysed by using a ultrasonicator (Cosmo Bio Co., LTD). Centrifugation was performed (12,000 rpm, 10 minutes) to obtain supernatant. To isolate xylanase from the supernatant, glutathione S-transferase column (GST binding resin column, Novagen) was used. For xylanase separation, the obtained supernatant was filled in glutathione S-transferase column (GST binding resin column, Novagen) equilibrated with washing buffer (50 mM Tris-HCl, 100 mM NaCl; pH 7.0), followed by treatment of factor Xa protease (NEB) and separation using washing buffer (50 mM Tris-HCl, 100 mM NaCl; pH 7.0). The enzyme activity of xylanase in each sample recovered from the purification stage was investigated. The purification of active fraction showing the enzyme activity was confirmed by SDS-PAGE. Protein content was measured by using Bradford method (Bradford, Sigma Aldrich), and BSA (bovine serum albumin) was used as the standard protein.

[3] = Enzymatic reaction rate (Lineweaver-Burk) of the purified xylanase; format: biochemical
[4] = 1 mM additive, negative control = 100
[5] = 1 mM of heavy metal or additive

With `O[C@H](CS)[C@H](O)CS` (racemic) [DTT, Dithiothreitol] the “Relative activity according to conc. of additive (%)” value (from here on “Relative activity according … (%)”) [1, 4] was 95%.

In the case of `OCCS` [2-ME, 2-Mercaptoethanol], the “Relative activity according … (%)” value [1, 4] is reported as 89%.

With `CC(=O)O` [Acetate] the “Relative activity according … (%)” value [1, 4] was 101%.

For `[Ca+2].[Cl-].[Cl-]` [CaCl2], the “Relative activity according … (%)” value [1, 4] was 102%.

For `[Cl-].[Cs+]` [CsCl2], the “Relative activity according … (%)” value [1, 4] was 97%.

In the case of `O=S(=O)([O-])[O-].[Cu+2]` [CuSO4], the “Relative activity according … (%)” value [1, 4] is reported as 26%, the “xylanase activity inhibited by” value [1, 5] is reported as 74% and the “enzyme activity in presence of additive” value ([1]; concentration of 100 HM) is reported as “hardly affected”.

For `O=C(O)CN(CCN(CC(=O)O)CC(=O)O)CC(=O)O` [EDTA], the “Relative activity according … (%)” value [1] was 54%, the “enzyme activity in presence of additive” value [1] was “hardly affected” and the “xylanase activity inhibited by” value [1] was 46%.

In the case of `[Cl][Fe]([Cl])[Cl]` [FeCl3], the “Relative activity according … (%)” value [1, 4] is reported as 88%, the “xylanase activity inhibited by” value [1, 5] is reported as 12% and the “enzyme activity in presence of additive” value ([1]; concentration of 100 HM) is reported as “hardly affected”.

In the case of `O=Cc1ccco1` [Furfural, furfural], the “Relative activity according … (%)” value [1, 4] is reported as 98%.

For `[Cl-].[K+]` [KCl], the “Relative activity according … (%)” value [1, 4] was 101%.

In the case of `[Cl-].[Li+]` [LiCl], the “Relative activity according … (%)” value [1, 4] is reported as 101%.

With `[Cl-].[Cl-].[Mg+2]` [MgCl2] the “Relative activity according … (%)” value [1, 4] was 93%.

In the case of `[Cl][Mn][Cl]` [MnCl2], the “Relative activity according … (%)” value [1, 4] is reported as 98%.

In the case of `Cl.N` [NH4Cl], the “Relative activity according … (%)” value [1, 4] is reported as 99%.

In the case of `[Cl-].[Na+]` [NaCl], the “Relative activity according … (%)” value [1] is reported as 105%.

In the case of `O=S(=O)(F)Cc1ccccc1` [PMSF, Penylmethylsulfonyl fluoride], the “Relative activity according … (%)” value [1, 4] is reported as 95%.

For `O=S(=O)([O-])[O-].[Zn+2]` [ZnSO4], the “Relative activity according … (%)” value [1, 4] was 72%, the “xylanase activity inhibited by” value [1, 5] was 28% and the “enzyme activity in presence of additive” value ([1]; concentration of 100 HM) was “hardly affected”.

B1: novel xylanase: approximately 65 kD xylanase of Paenibacillus sp. HPL-3, amino acid sequence SEQ. ID. NO: 4, produced in E. coli transformant (protein)
chain: MDTLKLYVESSNPAQAYYLDEVEIRQVSETPTTPPTEPTSGIESRFEDGTAQGWVSRMGTETVQVSNADARTGSYSLLTTGRQQTYAGPKLDVTATVQKGSRYTVSAWVKLAPGEQQPAKVRLSVQRDHQGESTYETVVGNTAITTGGWTHLYGTYTLAHEADTVSMYLETPEGTASFYMDDFELSLVPPLAIEKDIPSLHGLYQGQFSIGTAIEAFQTEGAYGELVQKHFNSVVAGNAMKPISLQPSEGQFHWEEADRIVQFAQQHGIAIRFHTLVWHNQTGDWMFKDKNGQPMTPTAENKKLLLDRLETHIRAVAARYKNVITDWDVVNEVIDPDQPDGMRRSKWYQITGTDYIDKAFRVTREAAGPNARLYINDYNTHEPKKRDFLYNLVRDLLAKGVPIDGVGHQSHIRLEFPAIDEMEQSIEKFASLGLDNQITELDMGLYSNDTDHYETIPEAMLIRQAHRYRALFDMFSRQQEHISNVTIWGTDDGNTWLSMFPIARLDKPLLFDERLKAKYAYWALVDPSKVPPLPAGSNE
modifications: SLX-O9 protein sequence
notes: approximately 65 kD xylanase of Paenibacillus sp; ID; NO: 4, produced in E. coli transformant
Molecule B1 has an enzyme activity ([2]; 50° C., pH 5.0) of 97.37 units, an enzyme activity ([2]; 50° C., pH 6.0) of 124.19 units and an enzyme activity ([2]; 50° C., pH 7.0) of 122.21 units. The enzyme activity ([2]; 50° C., pH 8.0) was 124.61 units, the enzyme activity ([2]; 50° C., pH 9.0) was 122.95 units and the enzyme activity ([2]; 50° C., pH 10.0) was 103.27 units. The enzyme activity ([2]; 50° C., pH 11.0) was 96.08 units, the enzyme activity ([2]; 60° C., pH 5.0, units = μM of xylose produced by 1 mg of enzyme per 1 minute) was 26.93 units and the enzyme activity ([2]; 60° C., pH 6.0) was 105.19 units. It also gave an enzyme activity ([2]; 60° C., pH 7.0) of 123.56 units, an enzyme activity ([2]; 60° C., pH 8.0) of 120.95 units and an enzyme activity ([2]; 60° C., pH 9.0) of 112.25 units. The enzyme activity ([2]; 60° C., pH 10.0) was 29.89 units, the enzyme activity ([2]; 60° C., pH 11.0) was 22.76 units and the “activity of purified enzyme compared with before purification” value ([2]; after glutathione resin column purification) was “at least 5 times”. The “xylanase activity when conjugated onto the resin” value ([2]; glutathione resin) was “not changed” and the “xylanase activity against other xylans (beech, oats, etc) compared with birch xylan” value [3] was “similar”.
